For series [1] the following is noted: human.
Series [2] is described as follows: Highest frequency of moderate liver toxicity observed during clinical trials, expressed as a percentage. [column '% BIOL' in source]. The note with it: human.
For series [3] the following is noted: human, serum, 4383 h.
For series [4] the following is noted: human. The source holds these as a separate data set.
For series [5] the following is noted: human, serum.
The conditions of series [6]: human. The source holds these as a separate data set.
The conditions of series [7]: human. This is another data set of the same source.
The conditions of series [8]: human. This is another data set of the same source.
For series [9] the following is noted: human. The source holds these as a separate data set.
The conditions of series [10]: human, serum. The source holds these as a separate data set.
For series [11] the following is noted: human. This is another data set of the same source.
For series [12] the following is noted: human. The source holds these as a separate data set.
A short description of series [13]: Highest frequency of acute liver toxicity observed during clinical trials, expressed as a percentage. [column '% AIGUE' in source]. The note with it: human.
The conditions of series [14]: human. The source holds these as a separate data set.

These results are taken from ChEMBL document CHEMBL3137667, “[Drug-induced liver injury; fourteenth updated edition of the bibliographic database of liver injuries and related drugs]” (Gastroenterol Clin Biol, 2004).
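For Hepatotoxicity (association with vascular disease) in this document: count of indexed literature references reporting vascular liver injury in humans, e.g. peliosis hepatitis, hepatic veno-occlusive disease or Budd-Chiari syndrome.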
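For Hepatotoxicity (benign tumour) in this document: value is a count of indexed literature references citing a benign tumour confirmed by histopathology.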
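For Hepatotoxicity (choleostasis) in this document: human cholestatic liver injury, shown by histopathology or by peak ALT or AST elevation over alkaline phosphatase ratio below 2, value counts indexed literature reports.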
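For Hepatotoxicity (chronic liver disease) in this document: chronic liver injury confirmed by histopathology or persistently raised serum aminotransferase activity beyond 6 months, value given as the count of indexed literature references.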
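For Hepatotoxicity (cirrhosis) in this document: value is a count of indexed literature references reporting cirrhosis confirmed by histopathology.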
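For Hepatotoxicity (cytolytic) in this document: human cytolytic liver injury, shown by histopathology or by a ratio above 5 of peak ALT or AST elevation to alkaline phosphatase elevation, value counts indexed references.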
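For Hepatotoxicity (granulomatous hepatitis) in this document: value is a count of indexed literature references reporting granulomatous liver disease confirmed by histopathology.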
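For Hepatotoxicity (malignant tumour) in this document: malignant tumour confirmed by histopathology, value gives the count of indexed literature references reporting it.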
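For Hepatotoxicity (severe hepatitis) in this document: human clinical data: severe hepatitis, meaning potentially life-threatening liver failure or clinically observed cases, the value counts how many indexed literature references report it.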
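For Hepatotoxicity (steatosis) in this document: steatosis confirmed by histopathology, value is the count of indexed references.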

As to `CN(C)S(=O)(=O)c1ccc2c(c1)N(CCCN1CCC(CCO)CC1)c1ccccc1S2` [PIPOTIAZINE], the “Hepatotoxicity (malignant tumour)” value in series [1] was found to be 0. The “Hepatotoxicity (moderate)” value amounted to 1.9% in series [2] and 1 in [5]. For the same compound, the “Hepatotoxicity (chronic liver disease)” value in series [3] turned out to be 0. Also, the “Hepatotoxicity (association with vascular disease)” value in [4] is reported as 0. In addition, the “Hepatotoxicity (cirrhosis)” value in [6] is on record as 0. In addition, the “Hepatotoxicity (steatosis)” value in series [7] worked out at 0. Moreover, the “Hepatotoxicity (cytolytic)” value in series [8] is 0. The “Hepatotoxicity (choleostasis)” value in series [9] came out at 0. Besides, the entries for the “Hepatotoxicity (acute)” value in [10] and in [13] were 0 and 0%, respectively. In addition, in series [11], the “Hepatotoxicity (granulomatous hepatitis)” value worked out at 0. The “Hepatotoxicity (benign tumour)” value in series [12] is 0. Further, in series [14], the “Hepatotoxicity (severe hepatitis)” value came to 0.
Consider NARTOGRASTIM, for which the “Hepatotoxicity (malignant tumour)” value in [1] was 0. Besides, the “Hepatotoxicity (moderate)” value in series [2] is recorded as 0%; in series [5], 1. Besides, the “Hepatotoxicity (chronic liver disease)” value in [3] came out at 0. In series [4], the “Hepatotoxicity (association with vascular disease)” value is reported as 0. For the same compound, the “Hepatotoxicity (cirrhosis)” value in series [6] is 0. Further, the “Hepatotoxicity (steatosis)” value in [7] is given as 0. The “Hepatotoxicity (cytolytic)” value in series [8] is given as 0. For the same compound, in series [9], the “Hepatotoxicity (choleostasis)” value is on record as 0. Further, the “Hepatotoxicity (acute)” value in series [10] was found to be 0; in [13], 0%. In series [11], the “Hepatotoxicity (granulomatous hepatitis)” value turned out to be 0. The “Hepatotoxicity (benign tumour)” value in [12] came to 0. For the same compound, the “Hepatotoxicity (severe hepatitis)” value in [14] was 0.
Regarding `NCCCC(N)(C(=O)O)C(F)F` (stereo not drawn) [EFLORNITHINE], in series [1], the “Hepatotoxicity (malignant tumour)” value is recorded as 0. For the same compound, the “Hepatotoxicity (moderate)” value in series [2] was determined as 0%; in series [5], 1. Besides, the “Hepatotoxicity (chronic liver disease)” value in series [3] was 0. Besides, the “Hepatotoxicity (association with vascular disease)” value in series [4] is listed as 0. The “Hepatotoxicity (cirrhosis)” value in [6] came out at 0. Besides, the “Hepatotoxicity (steatosis)” value in [7] is reported as 0. In addition, the “Hepatotoxicity (cytolytic)” value in [8] amounted to 0. Also, the “Hepatotoxicity (choleostasis)” value in [9] came out at 0. The entries for the “Hepatotoxicity (acute)” value in series [10] and in [13] were 0 and 0%, respectively. Also, in series [11], the “Hepatotoxicity (granulomatous hepatitis)” value is given as 0. In addition, the “Hepatotoxicity (benign tumour)” value in [12] was found to be 0. Besides, the “Hepatotoxicity (severe hepatitis)” value in series [14] was 0.
On to `CO[C@@H]1[C@H](OC(=O)/C=C/C=C/C=C/C=C/C(=O)O)CC[C@]2(CO2)[C@H]1[C@@]1(C)O[C@@H]1CC=C(C)C` [FUMAGILLIN], for which, in series [1], the “Hepatotoxicity (malignant tumour)” value is 0. The figures for the “Hepatotoxicity (moderate)” value in [2] and in series [5] were 16.7% and 2, respectively. The “Hepatotoxicity (chronic liver disease)” value in [3] is 0. In addition, the “Hepatotoxicity (association with vascular disease)” value in [4] is 0. For the same compound, the “Hepatotoxicity (cirrhosis)” value in series [6] worked out at 0. For the same compound, the “Hepatotoxicity (steatosis)” value in series [7] was 0. For the same compound, in series [8], the “Hepatotoxicity (cytolytic)” value turned out to be 1. For the same compound, the “Hepatotoxicity (choleostasis)” value in series [9] was found to be 0. For the same compound, the “Hepatotoxicity (acute)” value in series [10] amounted to 1; in [13], 3.4%. Moreover, the “Hepatotoxicity (granulomatous hepatitis)” value in series [11] is given as 0. Besides, the “Hepatotoxicity (benign tumour)” value in series [12] amounted to 0. The “Hepatotoxicity (severe hepatitis)” value in [14] is 0.
With `CC[C@H]1OC(=O)[C@H](C)C(=O)[C@H](C)[C@@H](O[C@@H]2O[C@H](C)C[C@H](N(C)C)[C@H]2O)[C@](C)(OC)C[C@@H](C)C(=O)[C@H](C)[C@H]2N(CCCCn3cnc(-c4cccnc4)c3)C(=O)O[C@]12C` [TELITHROMYCIN], the “Hepatotoxicity (malignant tumour)” value in series [1] turned out to be 0. Moreover, the figures for the “Hepatotoxicity (moderate)” value in series [2] (Liver) and in [5] were 1.8% and 4, respectively. The “Hepatotoxicity (chronic liver disease)” value in series [3] is on record as 0. Further, the “Hepatotoxicity (association with vascular disease)” value in [4] was found to be 0. For the same compound, in [6], the “Hepatotoxicity (cirrhosis)” value is 0. Further, the “Hepatotoxicity (steatosis)” value in series [7] stood at 0. Further, the “Hepatotoxicity (cytolytic)” value in series [8] (Liver) is reported as 0. For the same compound, in series [9] (Liver), the “Hepatotoxicity (choleostasis)” value is given as 0. Further, the “Hepatotoxicity (acute)” value turned out to be 0 in series [10] and 0% in [13] (Liver). In [11] (Liver), the “Hepatotoxicity (granulomatous hepatitis)” value amounted to 0. Moreover, in series [12], the “Hepatotoxicity (benign tumour)” value amounted to 0. Moreover, the “Hepatotoxicity (severe hepatitis)” value in [14] (Liver) worked out at 0.
Take `O=C(CCCN1CCC(C(=O)c2ccc(F)cc2)CC1)c1ccc(F)cc1` [LENPERONE]: the “Hepatotoxicity (malignant tumour)” value in series [1] came out at 0. In addition, the “Hepatotoxicity (moderate)” value in [2] is 0%; in series [5], 2. Moreover, in [3], the “Hepatotoxicity (chronic liver disease)” value is 0. Further, the “Hepatotoxicity (association with vascular disease)” value in series [4] is 0. In addition, the “Hepatotoxicity (cirrhosis)” value in series [6] was 0. For the same compound, the “Hepatotoxicity (steatosis)” value in series [7] is on record as 0. Besides, the “Hepatotoxicity (cytolytic)” value in [8] is on record as 0. Besides, in series [9], the “Hepatotoxicity (choleostasis)” value came to 0. In addition, the “Hepatotoxicity (acute)” value is on record as 0 in series [10] and 0% in series [13]. Also, the “Hepatotoxicity (granulomatous hepatitis)” value in series [11] is 0. Moreover, in series [12], the “Hepatotoxicity (benign tumour)” value is 0. In addition, the “Hepatotoxicity (severe hepatitis)” value in [14] came out at 0.
For the compound `CO[C@H]1[C@@H](O)[C@H](N)[C@@H](O[C@H]2O[C@H]([C@H](C)N)CC[C@H]2N)[C@H](O)[C@@H]1N(C)C(=O)CN` [ASTROMICIN], the “Hepatotoxicity (malignant tumour)” value in series [1] was determined as 0. Moreover, the “Hepatotoxicity (moderate)” value is given as 7.3% in [2] and 1 in [5]. For the same compound, in [3], the “Hepatotoxicity (chronic liver disease)” value came out at 0. The “Hepatotoxicity (association with vascular disease)” value in series [4] stood at 0. Moreover, the “Hepatotoxicity (cirrhosis)” value in series [6] was determined as 0. Moreover, the “Hepatotoxicity (steatosis)” value in series [7] came out at 0. Further, the “Hepatotoxicity (cytolytic)” value in series [8] was found to be 0. For the same compound, the “Hepatotoxicity (choleostasis)” value in series [9] was 0. The “Hepatotoxicity (acute)” value in series [10] came to 0; in series [13] it was 0%. In series [11], the “Hepatotoxicity (granulomatous hepatitis)” value came out at 0. Moreover, the “Hepatotoxicity (benign tumour)” value in [12] is 0. For the same compound, in series [14], the “Hepatotoxicity (severe hepatitis)” value was found to be 0.
Turning to `CCCCCN(C)CCC(O)(P(=O)(O)O)P(=O)(O)O` [IBANDRONIC ACID], the “Hepatotoxicity (malignant tumour)” value in series [1] came out at 0. Further, the “Hepatotoxicity (moderate)” value in [2] is on record as 0.6%; in series [5], 1. The “Hepatotoxicity (chronic liver disease)” value in series [3] is 0. Moreover, the “Hepatotoxicity (association with vascular disease)” value in series [4] amounted to 0. The “Hepatotoxicity (cirrhosis)” value in [6] is 0. In addition, the “Hepatotoxicity (steatosis)” value in [7] came out at 0. In [8], the “Hepatotoxicity (cytolytic)” value is reported as 0. Further, the “Hepatotoxicity (choleostasis)” value in [9] turned out to be 0. The “Hepatotoxicity (acute)” value in series [10] was 0; in [13] it was 0%. Further, in series [11], the “Hepatotoxicity (granulomatous hepatitis)” value came to 0. Besides, the “Hepatotoxicity (benign tumour)” value in series [12] is listed as 0. In addition, the “Hepatotoxicity (severe hepatitis)” value in series [14] was 0.
Regarding `CC1CCCC(C)N1CCCC(O)(c1ccccc1)c1ccccn1` (stereo not drawn) [PIRMENOL], the “Hepatotoxicity (malignant tumour)” value in series [1] stood at 0. The “Hepatotoxicity (moderate)” value in [2] was 5.3%; in series [5], 1. Moreover, the “Hepatotoxicity (chronic liver disease)” value in [3] is reported as 0. The “Hepatotoxicity (association with vascular disease)” value in [4] came out at 0. Besides, in [6], the “Hepatotoxicity (cirrhosis)” value was 0. Besides, the “Hepatotoxicity (steatosis)” value in series [7] is 0. In addition, in [8], the “Hepatotoxicity (cytolytic)” value is recorded as 0. Moreover, the “Hepatotoxicity (choleostasis)” value in [9] was 0. Besides, the “Hepatotoxicity (acute)” value in series [10] is listed as 0; in series [13], 0%. Also, in [11], the “Hepatotoxicity (granulomatous hepatitis)” value is given as 0. Further, in [12], the “Hepatotoxicity (benign tumour)” value came to 0. In addition, in series [14], the “Hepatotoxicity (severe hepatitis)” value was determined as 0.
Take DENILEUKIN DIFTITOX: the “Hepatotoxicity (malignant tumour)” value in [1] is listed as 0. For the same compound, the “Hepatotoxicity (moderate)” value in [2] stood at 45%; in series [5], 3. Further, the “Hepatotoxicity (chronic liver disease)” value in series [3] amounted to 0. Also, in [4], the “Hepatotoxicity (association with vascular disease)” value was determined as 0. In addition, the “Hepatotoxicity (cirrhosis)” value in [6] is 0. Besides, the “Hepatotoxicity (steatosis)” value in series [7] came to 0. Moreover, the “Hepatotoxicity (cytolytic)” value in series [8] was 1. In addition, the “Hepatotoxicity (choleostasis)” value in series [9] amounted to 0. Besides, the “Hepatotoxicity (acute)” value was 1 in series [10] and 10% in series [13]. Also, in series [11], the “Hepatotoxicity (granulomatous hepatitis)” value was 0. Further, the “Hepatotoxicity (benign tumour)” value in series [12] was 0. Further, the “Hepatotoxicity (severe hepatitis)” value in [14] is listed as 0.
Regarding `Cc1oc(=O)oc1COC(=O)[C@@H]1N2C(=O)[C@@H](NC(=O)[C@H](N)c3ccccc3)[C@H]2SC1(C)C` [LENAMPICILLIN], in [1], the “Hepatotoxicity (malignant tumour)” value turned out to be 0. In addition, the “Hepatotoxicity (moderate)” value in series [2] is recorded as 22%; in series [5], 9. Besides, in series [3], the “Hepatotoxicity (chronic liver disease)” value is 0. The “Hepatotoxicity (association with vascular disease)” value in [4] stood at 0. Further, the “Hepatotoxicity (cirrhosis)” value in [6] came to 0. For the same compound, the “Hepatotoxicity (steatosis)” value in series [7] is recorded as 0. In addition, the “Hepatotoxicity (cytolytic)” value in [8] is 0. In series [9], the “Hepatotoxicity (choleostasis)” value is listed as 0. The “Hepatotoxicity (acute)” value came out at 0 in [10] and 0% in series [13]. In [11], the “Hepatotoxicity (granulomatous hepatitis)” value is given as 0. Also, the “Hepatotoxicity (benign tumour)” value in series [12] is on record as 0. For the same compound, the “Hepatotoxicity (severe hepatitis)” value in series [14] is given as 0.
Consider `NCC1CC(=O)N(Cc2ccccc2)C1` (stereo not drawn) [NEBRACETAM], for which the “Hepatotoxicity (malignant tumour)” value in series [1] is listed as 0. The results for the “Hepatotoxicity (moderate)” value in series [2] and in series [5] were 11.1% and 1, respectively. In addition, the “Hepatotoxicity (chronic liver disease)” value in [3] was determined as 0. Besides, the “Hepatotoxicity (association with vascular disease)” value in series [4] was found to be 0. The “Hepatotoxicity (cirrhosis)” value in [6] stood at 0. Moreover, the “Hepatotoxicity (steatosis)” value in series [7] is listed as 0. Further, the “Hepatotoxicity (cytolytic)” value in series [8] was 0. For the same compound, the “Hepatotoxicity (choleostasis)” value in series [9] was 0. In addition, the “Hepatotoxicity (acute)” value in series [10] turned out to be 0; in series [13] it was 0%. The “Hepatotoxicity (granulomatous hepatitis)” value in [11] is given as 0. The “Hepatotoxicity (benign tumour)” value in [12] is recorded as 0. Moreover, the “Hepatotoxicity (severe hepatitis)” value in series [14] was determined as 0.
